Experimental data: US11806790B2, “Biosynthesis of metal nanoparticles” (KING SAUD UNIVERSITY, priority 2019, dated 2023)

Key:
Set-up in all cases: key: R = resistant; S = susceptible; BLAC = Beta-lactamase positive
[1] = system: E. coli (S); experiment: Susceptibility test of Gram negative Bacteria; type: cell-based
[2] = system: A. baumannii (R); experiment: Susceptibility test of Gram negative Bacteria; type: cell-based
[3] = system: E. coli (R); experiment: Susceptibility test of Gram negative Bacteria; type: cell-based
[4] = system: A. baumannii (S); experiment: Susceptibility test of Gram negative Bacteria; type: cell-based
[5] = system: MRSA; experiment: Susceptibility test of Gram positive Bacteria; type: cell-based, Methicillin-resistant S. aureus
[6] = system: S. epidermidis (R); experiment: Susceptibility test of Gram positive Bacteria; type: cell-based
[7] = system: S. aureus (S); experiment: Susceptibility test of Gram positive Bacteria; type: cell-based
[8] = system: S. epidermidis (S); experiment: Susceptibility test of Gram positive Bacteria; type: cell-based

| Compound | Susceptibility test [1] | Susceptibility test [2] | Susceptibility test [3] | Susceptibility test [4] | Susceptibility test [5] | Susceptibility test [6] | Susceptibility test [7] | Susceptibility test [8] |
| --- | --- | --- | --- | --- | --- | --- | --- | --- |
| CC1(C)S[C@@H]2[C@H](NC(=O)[C@H](N)c3ccc(O)cc3)C(=O)N2[C@H]1C(=O)O [Amoxicillin] | S | R | R | S |  |  |  |  |
| CC1(C)S[C@@H]2[C@H](NC(=O)[C@H](N)c3ccccc3)C(=O)N2[C@H]1C(=O)O [Ampicillin] | S | R | R |  | BLAC | R | BLAC | S |
| C[C@H]1[C@H](NC(=O)/C(=N\OC(C)(C)C(=O)O)c2csc(N)n2)C(=O)N1S(=O)(=O)O [Aztreonam] | S | R | R |  |  |  |  |  |
| CC(=O)OCC1=C(C(=O)O)N2C(=O)[C@@H](NC(=O)Cc3cccs3)[C@H]2SC1 [Cefalotin] | S |  | R |  |  |  |  |  |
| C=CC1=C(C(=O)O)N2C(=O)[C@@H](NC(=O)/C(=N\OCC(=O)O)c3csc(N)n3)[C@H]2SC1 [Cefixime] | S | R | R |  |  |  |  |  |
| CO/N=C(\C(=O)N[C@@H]1C(=O)N2C(C(=O)O)=C(COC(C)=O)CS[C@H]12)c1csc(N)n1 [Cefotaxime] |  | R |  | S |  | R |  |  |
| CO[C@@]1(NC(=O)Cc2cccs2)C(=O)N2C(C(=O)O)=C(COC(N)=O)CS[C@@H]21 [Cefoxitin] |  | R |  |  | Positive. | R | Negative. | S |
| CO/N=C(\C(=O)N[C@@H]1C(=O)N2C(C(=O)O)=C(COC(N)=O)CS[C@H]12)c1ccco1 [Cefuroxime] |  | R | R | S |  |  |  |  |
| CO/N=C(\C(=O)N[C@@H]1C(=O)N2C(C(=O)O)=C(CSc3nc(=O)c(O)nn3C)CS[C@H]12)c1csc(N)n1 [Ciftriaxone] |  | R |  |  |  |  |  |  |
| O=C(O)c1cn(C2CC2)c2cc(N3CCNCC3)c(F)cc2c1=O [Ciprofloxacin] |  |  |  |  | S | R | S | S |
| CCC[C@@H]1C[C@@H](C(=O)N[C@@H]([C@H]2O[C@H](SC)[C@H](O)[C@@H](O)[C@H]2O)[C@H](C)Cl)N(C)C1 [Clindamycin] |  |  |  |  |  | R | S | S |
| CC[C@H]1OC(=O)[C@H](C)[C@@H](O[C@H]2C[C@@](C)(OC)[C@@H](O)[C@H](C)O2)[C@H](C)[C@@H](O[C@@H]2O[C@H](C)C[C@H](N(C)C)[C@H]2O)[C@](C)(O)C[C@@H](C)C(=O)[C@H](C)[C@@H](O)[C@]1(C)O [Erythromycin] |  |  |  |  |  | R | R | S |
| C[C@@H](O)[C@H]1C(=O)N2C(C(=O)O)=C(SCCN=CN)C[C@H]12 [Imipenem] |  |  |  |  | R | R | S | S |
| C/C(=C\C(=O)OCCCCCCCCC(=O)O)C[C@@H]1OC[C@H](C[C@@H]2O[C@H]2[C@@H](C)[C@H](C)O)[C@@H](O)[C@H]1O [Mupirocin] |  |  |  |  | S | R | S | S |
| O=C1CN(/N=C/c2ccc([N+](=O)[O-])o2)C(=O)N1 [Nitrofurantoin] |  | R |  |  |  |  |  |  |
| Cc1onc(-c2ccccc2)c1C(=O)N[C@@H]1C(=O)N2[C@@H]1SC(C)(C)[C@@H]2C(=O)O [Oxacillin] |  |  |  |  | R | R | S | S |
| CC1(C)S[C@@H]2[C@H](NC(=O)Cc3ccccc3)C(=O)N2[C@H]1C(=O)O [Penicillin G] |  |  |  |  | BLAC | R | BLAC | S |
| Amoxicillin-Clavulanate |  | R |  |  | R | R | S | S |
| Gentamycin |  |  |  |  | S | R | S | S |
| Trimethoprim-Sulfamethoxazole |  |  |  |  | S | R | S | S |
